The source made the active and inactive calls. How the calls were made is not given here; tested in parental BL2 cells.
Assay: loss of cell viability by ATP content – CellTiter-Glo, cytotoxicity control, dose response (AID 1259333);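 further: 0% = vehicle neutral controls and -100% = reference inhibitor positive controls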
Settings: cytotoxicity, CellTiter-Glo ATP luminescence; at 3 µM (top of the series)

Structure (SMILES)	activity change, negative = cytotoxicity
O=C(Nc1ccccc1F)N1C[C@@H]2N[C@H](C1)C2c1ccc(/C=C/c2ccccc2)cc1 (some centres undefined)	21.6% (inactive)

Same assay, conditions: cytotoxicity, CellTiter-Glo ATP luminescence; at 3.5 µM (top of the series)

Structure (SMILES)	activity change, negative = cytotoxicity
C[C@@H]1CCCCO[C@@H](CN(C)CC2CCCCC2)[C@@H](C)CN([C@@H](C)CO)C(=O)c2cc(NC(=O)Nc3ccc(C(F)(F)F)cc3)ccc2O1	15% (inactive)
Cc1[nH]c2ccccc2c1C(c1ccccn1)N1CCC(C(N)=O)CC1 (centres undefined)	29.7% (inactive)
O=C1C=CC(=O)c2c(O)c(N3CCN(CCOCCO)CC3)c(Br)c(O)c21	104% (inactive)
C[C@@H]1CCCCO[C@@H](CN(C)C(=O)C2CCCCC2)[C@@H](C)CN([C@H](C)CO)C(=O)c2cc(NS(=O)(=O)c3ccccc3)ccc2O1	22.5% (inactive)

Same assay, conditions: cytotoxicity, CellTiter-Glo ATP luminescence; at 9 µM (top of the series)

Structure (SMILES)	activity change, negative = cytotoxicity
C[C@@H]1CN([C@H](C)CO)C(=O)c2c(c3ccccc3n2C)-c2ccccc2CO[C@@H]1CN(C)S(=O)(=O)c1ccccc1C#N	42.3% (inactive)

Same assay, conditions: cytotoxicity, CellTiter-Glo ATP luminescence; at 10 µM (top of the series)

Structure (SMILES)	activity change, negative = cytotoxicity
C[C@@H]1CN([C@@H](C)CO)C(=O)c2cc(C#CCc3ccccc3)cnc2O[C@@H]1CN(C)C(=O)C1CCOCC1	5.87% (inactive)
c1ccc(OCCSc2nnc3sc4ccccc4n23)cc1	-14.5% (inactive)
CCOc1ccc(OCc2cccc(C(=O)N3CCOCC3)c2)cc1	42% (inactive)
N#C[C@@H]1[C@H](c2ccc(C#Cc3ccccc3F)cc2)[C@@H](CO)N1C(=O)C1CC1	38% (inactive)
Oc1ccc2c(c1)OCC1(O)Cc3cc(O)c(O)cc3C21 (centres undefined)	8.98% (inactive)
O=C(C1CCOCC1)N1CC(=O)N2[C@H](C1)[C@H](c1ccc(C#CCc3ccccc3)cc1)[C@@H]2CO	95.5% (inactive)
N#CC(C#N)=NNc1cccc(Cl)c1	69.4% (inactive)
O=C(C1CCOCC1)N1CC(=O)N2[C@H](C1)[C@@H](c1ccc(C#CCc3ccccc3)cc1)[C@@H]2CO	47.9% (inactive)
O=C(O)c1ccc(Nc2nc3c(s2)CCCC3)cc1	38.4% (inactive)
O=C(Nc1nc2ccccc2s1)c1ccc(OCC2CCCO2)cc1 (centres undefined)	24.7% (inactive)
NS(=O)(=O)c1nn2cc(-c3ccccc3)nc2s1	65.7% (inactive)
CCc1cnc(N2[C@H](C#N)[C@@H](c3ccccc3C3=CCCC3)[C@@H]2CO)s1	-4.08% (inactive)
COc1ccc(Cl)cc1NC(=O)Nc1cc(C)nc2ccccc12	60.2% (inactive)
N#C[C@H]1[C@@H](c2ccc(C#CC3CCCCC3)cc2)[C@H](CO)N1C(=O)Nc1ccc(F)cc1	22.4% (inactive)
O=C(COC(=O)c1ccccc1)c1ccc2c(c1)OCCO2	21.1% (inactive)
C[C@H]1CN([C@@H](C)CO)C(=O)Cc2cc(NS(=O)(=O)c3cccs3)ccc2O[C@@H]1CN(C)Cc1ccc(Cl)c(Cl)c1	29.8% (inactive)
CC(=NNC(=S)N1CC2CCC(CC2)C1)c1nccs1	126% (inactive)
O=C(Nc1ccc2c(c1)OCCO2)C1CCCC1	9.1% (inactive)
COc1ccc(-c2cnc3c(c2)C(=O)N([C@H](C)CO)C[C@@H](C)[C@@H](CN(C)C(=O)Nc2c(C)noc2C)O3)cc1	49.3% (inactive)
CS(=O)(=O)c1ccc(C(=O)OCC(=O)NC(=O)C2CCCCC2)cc1[N+](=O)[O-]	42.9% (inactive)
COc1ccc2c3c(n(C)c2c1)[C@H](CO)N(C(=O)Nc1ccc(F)cc1)CC31CCN(C(=O)Nc2ccc(F)cc2F)CC1	29.2% (inactive)
CC(=O)OC1CCC2(C)C(CCC3C4CC=C(C(C)=O)C4(C)OC(=O)CC32)C1 (centres undefined)	133% (inactive)
C[C@@H]1CN([C@@H](C)CO)C(=O)Cc2cc(NS(=O)(=O)c3ccc(F)cc3)ccc2O[C@H]1CN(C)Cc1ccc(C(F)(F)F)cc1	20.6% (inactive)

Structure (SMILES)	activity change, negative = cytotoxicity
COc1cccc(/C=N/Nc2ccc(C(=O)O)cc2)c1O	5.24% (inactive)
CC(C)(C)NCC(=Cc1ccccc1)C(=O)c1ccccc1	103% (inactive)
CC1CC(C)CC(C)C(O)C(C#N)=CC=CCC(C2CCCC2C(=O)O)OC(=O)CC(O)C(C)C1 (centres undefined)	-8.2% (inactive)
CC1CCOC(=O)C=CC=CC(=O)OC2CC3OC4C5OC5(C)C(O)CC4(COC(=O)C1O)C2(C)C31CO1 (centres undefined)	6.8% (inactive)
COc1ccc(C#Cc2ccc([C@@H]3[C@H](CO)N4CCCCN(C(=O)Nc5cccc(F)c5)C[C@@H]34)cc2)cc1	50.4% (inactive)
C(=Cc1c[nH]c2ccccc12)c1nccc2ccccc12	33.1% (inactive)
N#C[C@@H]1[C@H](c2ccc(C#Cc3ccc(F)cc3)cc2)[C@@H](CO)N1C(=O)C1CCC1	5.33% (inactive)
C[C@H](CO)N1C[C@H](C)[C@H](CN(C)C(=O)C2CCOCC2)Oc2ncc(C#CCc3ccccc3)cc2C1=O	0.181% (inactive)
CCCCC1C(=O)NC(=S)N(C)C1=O (centres undefined)	33.7% (inactive)
CC1CCCC=CC2CC(OC(=O)CN(C)C)CC2C(O)C=CC(=O)O1 (centres undefined)	53.7% (inactive)
CC12CN3CC(C)(CN(C1)C3c1ccc3c(c1)OCO3)C2=O (centres undefined)	48.6% (inactive)
O=C1C[C@H](c2ccccc2)C(=O)N[C@@H](c2ccccc2)C/C=C\C[C@@H](c2ccccc2)N1	72.2% (inactive)
CCCn1c(NC(=O)c2cccc(S(=O)(=O)N3CCCC3)c2)nc2ccccc21	12.5% (inactive)
N#C[C@@H]1[C@@H](c2ccccc2)[C@H](CO)N1C(=O)CN1CCOCC1	77.6% (inactive)
Nc1ccc(-c2cccc3c(=O)cc(N4CCOCC4)oc23)cc1	15.1% (inactive)
O=C1CC(c2ccc3c(c2)OCO3)Sc2nc3ccccc3n21 (centres undefined)	31.6% (inactive)
CC1CC(C)C(=O)C(C(CC2CC(=O)NC(=O)C2)OC(=O)CC(=O)c2ccccc2)C1 (centres undefined)	11.5% (inactive)
Cc1nc(-c2ccc(OCC(C)C)c(C#N)c2)sc1C(=O)O	23.3% (inactive)
c1ccc2c(c1)OCC(C1=NCCN1)O2 (centres undefined)	56.8% (inactive)
COCCn1c(C)cc(C(=O)COC(=O)c2ccc(Br)o2)c1C	28.5% (inactive)
Cn1c(CO)nc2cc(N)ccc21	34.6% (inactive)
C=C1C(=O)OC2C=C(CO)CCC=C(CO)CC(OC(=O)C(C)C)C12 (centres undefined)	38.2% (inactive)
N#Cc1cccc(-c2ccc([C@@H]3[C@@H]4CN(S(=O)(=O)c5ccc(-c6ccccc6)cc5)C[C@H]3N4)cc2)c1	25.4% (inactive)

Structure (SMILES)	activity change, negative = cytotoxicity
c1ccc(CCSc2nccn2-c2ccccc2)cc1	33.3% (inactive)
COc1ccc(C=Cc2ccc3ccccc3n2)c(OC)c1	26.9% (inactive)
c1cncc(C2=NCCC2)c1	36.6% (inactive)
Cc1ccc(S(=O)(=O)CCC(=O)N(CCCN2CCOCC2)c2nc3ccccc3s2)cc1	29.5% (inactive)
O=C1C(=Cc2ccccc2[N+](=O)[O-])Cc2ccccc21	161% (inactive)
COc1ccc(CN2CC3(CN(S(=O)(=O)c4ccc(C)cc4)C3)c3c([nH]c4cc(OC)ccc34)[C@H]2CO)cc1	20.2% (inactive)
COc1cccc(S(=O)(=O)N(C)C[C@@H]2OCc3ccccc3-c3c(n(C)c4ccccc34)C(=O)N([C@@H](C)CO)C[C@@H]2C)c1	3.23% (inactive)
CC1(C)C(=O)C=C[C@@]2(C)C1C=C[C@]1(C)C2CC[C@@]2(C)[C@H](c3ccoc3)OC(=O)[C@H]3O[C@]321 (some centres undefined)	15.6% (inactive)
Cc1ccc2nc(C(F)(F)F)c(C#N)c(N)c2c1	1.7% (inactive)
CC=Cc1cc2c(c(=O)o1)C(=O)C(O)C(C)O2 (centres undefined)	37.6% (inactive)
CO[C@@H](CN(C)S(=O)(=O)c1ccc(Cl)cc1)[C@H](C)CN(Cc1ccccc1Cl)[C@@H](C)CO	1.13% (inactive)
C/C=C/c1ccc(C2[C@H]3CNC[C@@H]2N3Cc2cccc(OC)c2)cc1 (some centres undefined)	18% (inactive)
O=C(C[C@@H]1CC[C@H]2[C@@H](COC[C@@H](O)CN2Cc2cc(F)ccc2F)O1)NCc1ccc(Oc2ccccc2)cc1	14.2% (inactive)
O=C(C#Cc1ccccc1)c1ccccc1	43.8% (inactive)
N#Cc1ccc(-c2ccc3c(c2)[C@H]2[C@H](CCN2C(=O)C2CC2)[C@@H](CO)N3)cc1	66.9% (inactive)
CCCCn1c(NC(=O)c2ccc(Br)o2)c(S(=O)(=O)c2ccccc2)c2nc3ccccc3nc21	62.4% (inactive)
Cc1ccccc1-c1ccc2c(c1)O[C@@H](CN(C)C(=O)Nc1ccc(C(F)(F)F)cc1)[C@@H](C)CN([C@@H](C)CO)S2(=O)=O	16.7% (inactive)
COc1ccc(S(=O)(=O)N(C)C[C@@H]2Oc3ccc(NC(=O)Nc4ccc(C(F)(F)F)cc4)cc3C(=O)N([C@H](C)CO)C[C@H]2C)cc1	22.7% (inactive)
CC(=O)O[C@@H]1C[C@@]2(C)[C@H](c3ccoc3)C[C@H]3O[C@]32[C@]2(C)C(=O)C(=O)C3C(C)(C)C(=O)C=C[C@]3(C)C12 (some centres undefined)	188% (inactive)
COC(=O)c1ccc2c(=O)[nH]c(COC(=O)c3c(-c4ccccc4)noc3C)nc2c1	11% (inactive)
CC(=O)c1cc(-c2ccccc2)n(CC(=O)NCc2cccs2)c1C	2.3% (inactive)

Same assay, conditions: cytotoxicity, CellTiter-Glo ATP luminescence; at 11 µM (top of the series)

Structure (SMILES)	activity change, negative = cytotoxicity
COc1ccc(-c2ccc([C@H]3[C@@H](C#N)N(C(=O)c4cccc(F)c4)[C@H]3CO)cc2)cc1	24% (inactive)

Source: PubChem BioAssay AID1259333 (Broad Institute, 2017)
